Experimental data as given in patent US10080777B2, “Syndecan peptides and polypeptides and uses thereof” (WISCONSIN ALUMNI RESEARCH FOUNDATION, priority 2012, dated 2018).
Entries after “also recorded” stand apart in the source; their conditions may differ. Each block holds one molecule with its values, some of them ahead of it. Ends that are not written are not given here.

Assays:
[1] = system: human HaCat keratinocytes or MCF10A mammary epithelial cells; assay: Competition of GST-fusion proteins or synthetic peptides in EGF-stimulated scratch wound migration (FIG. 8 summary); assay type: cell-based; conditions: for competitive activity: FIGS. 8A-C
Protocol: FIGS. 8A-C. […] GST-fusion proteins or synthetic peptides were added at concentrations ranging from 0.1 to 30 μM to the culture medium of human HaCat keratinocytes or MCF10A mammary epithelial cells in the presence or absence of 20 ng/ml EGF. The ability of the constructs to inhibit the migration of the cells to close a scratch wound in confluent monolayers was determined and express as the concentration of inhibitor necessary to cause 50% inhibition of cell migration. (FIG. 8A) Competition using recombinant GST-fusion proteins. GST-Sdc4 fusion proteins bearing truncations or mutations were assessed for their competitive activity. […] (FIG. 8B) Schematic representation of the active site in Sdc4. The active site is shown as a juxtamembrane site in the ectodomain of Sdc4. TM is the transmembrane domain and CYTO is the cytoplasmic domain. The sequence of a peptide derived from this site ([…]) (SEQ ID NO: 4) is shown along with its homology across other mammalian Sdc4 species (SEQ ID NO: 12) and its homology to Sdc4 derived from zebrafish (SEQ ID NO: 13), identifying highly conserved amino acids at the extreme N- and C-terminus of the peptide. (FIG. 8C) Competition with synthetic peptides. Peptides were purchased from commercial sources for testing as a putative synstatin inhibitory peptide ([…]). Mutation of isoleucine at position 89 to alanine (I89A), or mutation of amino acids 99-108 to alanine (99-108A) reduce the activity by 10-fold. Truncation of amino acids 126-131 at the C-terminus (4126-131) reduces the activity by at least 100-fold.
Wound healing assay. HaCat or MCF10A cells grown to confluence on 48 well-plates were starved for 6 hr by serum deprivation followed by introduction of a scratch wound in the monolayer using 200 μl pipette tip. […] Images were acquired using a PlanApo 20 (0.75 numerical aperture) objective and a Photometrics CoolSnap ES camera on a Nikon Eclipse TE2000U microscopy system and wound closure quantified.

HaCat keratinocytes = assay: EGF-stimulated scratch wound closure (chemotactic migration) of HaCat keratinocytes; assay type: cell-based, human; conditions: EGF 10 ng/ml
[2] = system: HaCat human keratinocytes; assay: Total cell number, CellTiterGLO assay, HaCat; assay type: cell-based; conditions: 3-30 μM; 4 or 7 days; normal epithelium
Protocol: (§1) FIGS. 9A-F. SSTN treatment of normal (nontransformed) epithelial cells versus carcinoma (transformed) cells. Cells are plated for one day, then treated with either 3-30 μM […] (SSTN-I), 3-30 μM […] (SSTN-E), 3-30 μM SSTNHER2 (SSTN-H) or combinations of the three peptides, each at 10 μM to test their additive effect. […] The treatment times are chosen to reflect only modest effects of the peptides used singly, so that the more pronounced effect of peptides used in combination can still be observed. Treatment for longer times leads to significant cell death observed even with single peptides alone. (FIG. 9A) HaCat human keratinocytes, an example of a normal stratified epithelium, (FIG. 9B) UM-SCC47 cells, a squamous cell carcinoma derived from the tongue of a patient (a stratrified epithelium), (FIG. 9C) SCC25 cells, another squamous cell carcinoma from the tongue of a patient), (FIG. 9D) MCF10A cells, a normal human breast epithelium, (FIG. 9E) MDA-MB-468 cells, a triple-negative (TN) breast carcinoma, and (FIG. 9F) SKBr3 cells, a HER2+ human breast carcinoma. Note that all four carcinomas are inhibited by […], and this is enhanced when […] is combined with the other SSTN peptides, leading to obvious cell death (e.g., the number of cells at the end of the experiment are less than at the beginning).
(§2) Apoptosis assay. […]

SKBr3 cells = assay: Total cell number, CellTiterGLO assay, SKBr3; assay type: cell-based, human; conditions: 3-30 μM; combinations each at 10 μM; 4 or 7 days
Protocol: as §1, §2

SCC25 cells = assay: Total cell number, CellTiterGLO assay, SCC25; assay type: cell-based, human; conditions: 3-30 μM; combinations each at 10 μM; 4 or 7 days
Protocol: as §1, §2

MCF10A cells = assay: Total cell number, CellTiterGLO assay, MCF10A; assay type: cell-based, human; conditions: 3-30 μM; 4 or 7 days; normal epithelium
Protocol: as §1, §2

UM-SCC47 cells = assay: Total cell number, CellTiterGLO assay, UM-SCC47; assay type: cell-based, human; conditions: 3-30 μM; combinations each at 10 μM; 4 or 7 days
Protocol: as §1, §2

MDA-MB-468 cells = assay: Total cell number, CellTiterGLO assay, MDA-MB-468; assay type: cell-based, human; conditions: 3-30 μM; combinations each at 10 μM; 4 or 7 days
Protocol: as §1, §2

[3] = system: MCF10A mammary epithelial cells
Protocol: Migration of human MCF10A mammary epithelial cells in response to EGF (10 ng/ml) is tested in 12 hr scratch wound closure assays.
Wound healing assay. HaCat or MCF10A cells grown to confluence on 48 well-plates were starved for 6 hr by serum deprivation followed by introduction of a scratch wound in the monolayer using 200 μl pipette tip. […] To cause EGF-stimulated chemotactic migration that depends on Sdc4, cells were stimulated with EGF (10 ng/ml). Images were acquired using a PlanApo 20 (0.75 numerical aperture) objective and a Photometrics CoolSnap ES camera on a Nikon Eclipse TE2000U microscopy system and wound closure quantified.

fibroblasts = conditions: McFall et al.; cited from earlier work
EGFR = target: T1, EGFR (Homo sapiens, UniProt P00533); assay: Capture of EGFR from cell lysates by GST-ectodomain on glutathione beads; assay type: binding; conditions: lysates of EGF-stimulated A431 cells / HaCat cell lysates, western blot
T1 construct: endogenous in cells
Protocol: (§3) (FIG. 6A) Mouse syndecan chimeras in which their ectodomains are switched are expressed in HaCat cells, then immunoprecipitated with antibodies specific for the mouse syndecan ectodomains. […] Also note that these complexes assemble only upon EGF treatment.
(§4) Immunoprecipitation. Immunoprecipitations were carried out as described previously (Beauvais et al., 2004; Beauvais et al., 2006). Cells were washed once with washing buffer (50 mM Hepes, 50 mM NaCl and 10 mM EDTA, pH 7.4) and lysed for 20 min on ice in 1% Triton X-100 containing a 1:1000 dilution of protease inhibitor mixture set III (Calbiochem) in washing buffer. Cell debris was removed by centrifugation at 20,000 g for 15 min at 4° C. Lysates or 6×His-tagged β4 cytoplasmic domain (amino acids 1677-1752) were incubated at 4° C. overnight with 100 μl Glutathione Sepharose 4B beads (50% in IP wash buffer), GST-S4CD or GST-S1CD in present or absent of different peptides. Samples were resolved by electrophoresis under reduced conditions on a 15% Laemmli gel, transferred to Immobilon P, and probed with primary antibody followed by an alkaline phosphatase-conjugated secondary antibody. Visualization of immune-reactive bands was performed using ECF reagent (GE Healthcare) and scanned on a Typhoon Trio Variable Mode Imager (GE-Healthcare) in blue fluorescence. […]

[4] = system: MDA-MB-468 breast carcinoma; assay: MDA-MB-468 breast carcinoma subcutaneous tumor growth in nude mice, Alzet pump delivery; assay type: in vivo, nude (nu/nu) mice; conditions: 400 μM in pump, 0.25 μL/hr systemic, 8 wks, started 2 weeks after implantation
Protocol: (§5) FIG. 10. S4ED blocks MDA-MB-468 breast carcinoma growth in vivo. Human MDA-MB-468 breast carcinoma cells were implanted subcutaneously on the flank of nude (nu/nu) mice and allowed to grow for 2 weeks to form palpable tumors (dotted blue line indicates size after 2 weeks). At that time, systemic delivery (0.25 μL/hr) of 400 μM recombinant GST-S4ED, GST alone or saline alone (no treatment) was initiated by surgical implantation of Alzet pumps on the behind the shoulder blades of the animals for 4 wks, followed by replacement with pumps containing fresh protein for an additional 4 wks. Tumor size was measured with calipers at 2 week intervals. Error bars denote S.D., 10 tumors/treatment group.
(§6) The inventor has tested the entire recombinant S4ED protein (as a GST-S4ED fusion protein) as an inhibitor against one of these carcinoma cells (the MDA-MB-468 cells) during tumor growth in immunocompromised nude (nu/nu) mice.

HER2 = target: T2, HER2 (Homo sapiens, UniProt P04626); assay: Capture of HER2 from cell lysates by GST-ectodomain on glutathione beads; assay type: binding; conditions: lysates of EGF-stimulated A431 cells; western blot
T2 construct: endogenous in cells
Protocol: as §3, §4

α6β4 integrin = target: T3, α6β4 integrin (Homo sapiens, UniProt P16144+P23229); assay: Capture of α6β4 integrin from cell lysates by GST-ectodomain on glutathione beads; assay type: binding; conditions: re-probed blot, data not shown
T3 construct: endogenous in cells
Protocol: Immunoprecipitation. Immunoprecipitations were carried out as described previously (Beauvais et al., 2004; Beauvais et al., 2006). Cells were washed once with washing buffer (50 mM Hepes, 50 mM NaCl and 10 mM EDTA, pH 7.4) and lysed for 20 min on ice in 1% Triton X-100 containing a 1:1000 dilution of protease inhibitor mixture set III (Calbiochem) in washing buffer. Cell debris was removed by centrifugation at 20,000 g for 15 min at 4° C. Lysates or 6×His-tagged β4 cytoplasmic domain (amino acids 1677-1752) were incubated at 4° C. overnight with 100 μl Glutathione Sepharose 4B beads (50% in IP wash buffer), GST-S4CD or GST-S1CD in present or absent of different peptides. Samples were resolved by electrophoresis under reduced conditions on a 15% Laemmli gel, transferred to Immobilon P, and probed with primary antibody followed by an alkaline phosphatase-conjugated secondary antibody. Visualization of immune-reactive bands was performed using ECF reagent (GE Healthcare) and scanned on a Typhoon Trio Variable Mode Imager (GE-Healthcare) in blue fluorescence.
The inventor's prior work has shown that Sdc1 contains a site in its extracellular domain to capture the αvβ3 or αvβ5 integrin and the insulin-like growth factor-1 receptor (IGF1-R) (Beauvais et al., 2009; Beauvais & Rapraeger, 2010). […]

[5] = Estimated blood concentration during Alzet pump delivery; assay type: in vivo, nude (nu/nu) mice; conditions: 400 μM in the pump
Protocol: as §5, §6

T3 sequence (P23229 24-1130): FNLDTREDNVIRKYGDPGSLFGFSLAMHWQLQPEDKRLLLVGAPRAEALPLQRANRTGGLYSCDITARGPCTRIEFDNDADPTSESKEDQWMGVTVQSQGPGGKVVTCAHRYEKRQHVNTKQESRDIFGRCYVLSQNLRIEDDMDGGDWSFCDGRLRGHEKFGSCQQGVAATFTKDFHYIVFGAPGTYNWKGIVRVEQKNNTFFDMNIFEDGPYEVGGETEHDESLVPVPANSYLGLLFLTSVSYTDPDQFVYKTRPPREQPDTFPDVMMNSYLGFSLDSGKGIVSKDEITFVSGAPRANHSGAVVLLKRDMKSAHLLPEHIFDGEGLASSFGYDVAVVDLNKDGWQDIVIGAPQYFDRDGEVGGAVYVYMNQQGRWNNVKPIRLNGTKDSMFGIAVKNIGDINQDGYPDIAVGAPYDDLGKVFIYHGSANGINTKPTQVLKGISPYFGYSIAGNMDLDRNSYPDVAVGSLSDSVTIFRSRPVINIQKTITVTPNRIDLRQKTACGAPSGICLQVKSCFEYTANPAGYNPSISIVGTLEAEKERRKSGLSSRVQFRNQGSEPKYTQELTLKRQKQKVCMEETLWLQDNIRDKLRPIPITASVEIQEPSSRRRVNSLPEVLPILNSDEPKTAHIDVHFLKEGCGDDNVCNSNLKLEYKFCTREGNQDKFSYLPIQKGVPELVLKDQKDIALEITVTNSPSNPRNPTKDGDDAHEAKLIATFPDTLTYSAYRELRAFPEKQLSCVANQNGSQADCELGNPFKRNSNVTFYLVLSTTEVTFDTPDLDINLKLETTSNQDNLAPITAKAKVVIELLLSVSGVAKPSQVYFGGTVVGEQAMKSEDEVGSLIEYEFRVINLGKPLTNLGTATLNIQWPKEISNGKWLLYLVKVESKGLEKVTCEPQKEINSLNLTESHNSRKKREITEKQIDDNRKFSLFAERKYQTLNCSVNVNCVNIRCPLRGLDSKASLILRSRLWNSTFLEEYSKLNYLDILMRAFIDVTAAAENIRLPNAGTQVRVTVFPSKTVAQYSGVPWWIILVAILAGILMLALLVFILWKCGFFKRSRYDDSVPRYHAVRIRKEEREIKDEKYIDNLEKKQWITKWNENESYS
T3 sequence (P23229 942-1130 limits assumed): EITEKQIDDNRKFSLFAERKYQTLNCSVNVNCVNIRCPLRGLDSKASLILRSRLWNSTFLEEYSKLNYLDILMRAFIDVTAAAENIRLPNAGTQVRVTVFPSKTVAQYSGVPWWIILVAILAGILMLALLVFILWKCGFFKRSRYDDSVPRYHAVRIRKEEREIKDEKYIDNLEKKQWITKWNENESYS
T3 sequence (P16144 28-1752 isoform P16144-2 limits assumed): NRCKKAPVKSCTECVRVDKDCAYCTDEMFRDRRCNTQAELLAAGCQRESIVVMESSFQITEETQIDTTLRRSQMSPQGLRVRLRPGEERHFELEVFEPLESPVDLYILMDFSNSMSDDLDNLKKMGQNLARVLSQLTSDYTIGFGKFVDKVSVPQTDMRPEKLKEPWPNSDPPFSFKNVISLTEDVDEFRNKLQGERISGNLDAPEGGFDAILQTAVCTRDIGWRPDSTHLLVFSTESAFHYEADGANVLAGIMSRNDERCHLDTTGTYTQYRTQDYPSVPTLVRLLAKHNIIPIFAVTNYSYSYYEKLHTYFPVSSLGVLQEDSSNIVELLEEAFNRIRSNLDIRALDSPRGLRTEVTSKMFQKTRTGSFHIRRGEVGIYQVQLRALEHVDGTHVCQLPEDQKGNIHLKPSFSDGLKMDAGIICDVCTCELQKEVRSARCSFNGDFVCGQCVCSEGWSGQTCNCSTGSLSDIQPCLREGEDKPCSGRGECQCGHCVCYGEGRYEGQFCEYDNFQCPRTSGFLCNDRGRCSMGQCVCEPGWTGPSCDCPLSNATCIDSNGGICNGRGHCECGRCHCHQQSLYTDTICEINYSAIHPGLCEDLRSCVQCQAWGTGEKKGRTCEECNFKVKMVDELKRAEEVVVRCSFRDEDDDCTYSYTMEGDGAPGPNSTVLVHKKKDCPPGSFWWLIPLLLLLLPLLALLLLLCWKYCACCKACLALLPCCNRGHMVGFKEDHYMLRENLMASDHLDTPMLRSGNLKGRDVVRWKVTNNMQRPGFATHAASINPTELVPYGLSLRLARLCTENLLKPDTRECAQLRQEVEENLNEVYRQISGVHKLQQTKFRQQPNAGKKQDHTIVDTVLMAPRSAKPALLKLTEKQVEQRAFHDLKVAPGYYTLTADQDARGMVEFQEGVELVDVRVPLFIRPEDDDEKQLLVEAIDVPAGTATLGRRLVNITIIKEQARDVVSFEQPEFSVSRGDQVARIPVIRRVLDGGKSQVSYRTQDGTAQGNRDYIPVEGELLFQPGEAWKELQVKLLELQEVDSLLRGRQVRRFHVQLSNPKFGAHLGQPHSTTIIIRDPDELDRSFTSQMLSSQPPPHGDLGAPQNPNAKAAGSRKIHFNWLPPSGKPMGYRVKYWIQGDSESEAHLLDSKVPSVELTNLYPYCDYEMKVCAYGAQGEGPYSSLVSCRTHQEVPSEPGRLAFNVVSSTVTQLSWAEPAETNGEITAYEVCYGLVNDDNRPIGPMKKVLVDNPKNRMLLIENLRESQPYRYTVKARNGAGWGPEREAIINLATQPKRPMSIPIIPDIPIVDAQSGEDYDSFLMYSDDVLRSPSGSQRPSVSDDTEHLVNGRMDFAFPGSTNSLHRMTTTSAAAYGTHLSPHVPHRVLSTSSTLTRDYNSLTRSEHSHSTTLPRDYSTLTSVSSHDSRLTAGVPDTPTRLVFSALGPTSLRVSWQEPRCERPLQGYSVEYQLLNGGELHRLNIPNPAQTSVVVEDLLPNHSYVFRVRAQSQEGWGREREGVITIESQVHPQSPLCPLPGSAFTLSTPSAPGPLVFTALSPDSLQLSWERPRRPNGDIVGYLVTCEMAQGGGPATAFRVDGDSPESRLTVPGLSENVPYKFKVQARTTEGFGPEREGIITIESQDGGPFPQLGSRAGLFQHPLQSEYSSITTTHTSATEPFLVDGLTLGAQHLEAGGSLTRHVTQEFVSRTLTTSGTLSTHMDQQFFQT

Molecule: 4126-131: synthetic peptide with truncation of amino acids 126-131 at the C-terminus (NHIPERAGSGSQVPTEPKKLEENEVIPKRISPVEESEDV)
- reduction of competitive activity, synthetic peptide variants versus peptide 87-131 ([1]; 0.1 to 30 μM, 20 ng/ml EGF, FIG. 8C): at least 100 fold

Molecule: COc1cc(/C=C(\C#N)C(N)=O)cc(CSc2nc3ccccc3s2)c1O [AG825]
- effect on EGF-induced migration / wound closure (in words) (HaCat keratinocytes; 10 μM AG825): not inhibited; also recorded: not by the tyrphostin AG825

Molecule: COc1cc2ncnc(Nc3ccc(F)c(Cl)c3)c2cc1OCCCN1CCOCC1 [Iressa]
- effect on EGF-induced migration / wound closure (in words) (HaCat keratinocytes; 1 μM Iressa): does block wound closure; also recorded: blocked

Molecule: NHIPERAGSGSQVPTEPKKLEENEVIPKRISPVEESEDVSNKVSM
- effect on EGF-induced migration / wound closure (in words) (HaCat keratinocytes): blocks
- growth or survival (total cell number) [2]: no effect
- growth/survival (total cell number) (SKBr3 cells): do target growth/survival mechanisms; also recorded: inhibited
- growth/survival (total cell number) (SCC25 cells): do target growth/survival mechanisms; also recorded: inhibited
- growth or survival (total cell number) (MCF10A cells): no effect
- growth/survival (total cell number) (UM-SCC47 cells): do target growth/survival mechanisms; also recorded: inhibited
- growth/survival (total cell number) (MDA-MB-468 cells): do target growth/survival mechanisms; also recorded: inhibited
- IC50 ([3]; 12 h): 100 to 300 nM
- effect on EGF-stimulated migration/chemotaxis (in words) ([3]; EGF 10 ng/ml, scratch wound closure): blocks

Molecule: S4ED98-131: truncated Sdc4 ectodomain, amino acids 98-131 (QVPTEPKKLEENEVIPKRISPVEESEDVSNKVSM)
- competitive activity [1]: ca. 10%
- loss of activity versus S4ED78-131 as competitor for cell adhesion (fibroblasts): 100 fold

Molecule: S4ED 78-118: truncated Sdc4 ectodomain, amino acids 78-118 (VVHPLVPLDNHIPERAGSGSQVPTEPKKLEENEVIPKRISP)
- competitive activity [1]: ca. 10%
- activity as competitor for cell adhesion to full-length S4ED (in words) (fibroblasts): completely inactive

- capture of EGFR (EGFR): captures
- capture of EGFR (EGFR; listed as S4ED): captures only EGFR
- capture of HER2 (HER2): captures only EGFR
- capture of α6β4 integrin (α6β4 integrin): also captured
B1: GST-S4ED: recombinant Sdc4 ectodomain GST fusion protein (protein)
chain: ESIRETEVIDPQDLLEGRYFSGALPDDEDVVGPGQESDDFELSGSGDLDDLEDSMIGPEVVHPLVPLDNHIPERAGSGSQVPTEPKKLEENEVIPKRISPVEESEDVSNKVSMSSTVQGSNIFERTE
modifications: left off: a dimerising Fc or GST
notes: recombinant Sdc4 ectodomain GST fusion protein
- tumor growth [4]: tumor growth leveling off
- tumor growth ([4]; listed as S4ED): blocks
- block of EGF-stimulated migration ([3]; 10 μM, EGF 10 ng/ml, 12 hr scratch wound closure): 80%
- estimated concentration in the blood [5]: 2 to 3 µM
